In ChEMBL document CHEMBL6120962, “New Mitochondria-Targeted Fisetin Derivative Compromises Mitophagy and Limits Survival of Drug-Induced Senescent Breast Cancer Cells” (J Med Chem, 2024):
Activity calls are given as the source filed them. The rule behind the calls is not given here.

Assays:
T47D = assay: Antitumor activity against ER-positive human T47D cells xenografted in Danio rerio embryo assessed as decrease in tumor size at 1 to 5 uM administered for 48 hrs by imaging analysis; assay type: functional, cell-based; details: dose 1-5 µM
ZR-75-30 [1] = assay: Induction of apoptosis in tamoxifen-induced senescent human ZR-75-30 cells assessed as increase in caspase 9 level incubated for 24 hrs by immunostaining based imaging cytometric analysis; assay type: functional, cell-based
HCC1428 [2] = assay: Induction of apoptosis in tamoxifen-induced senescent human HCC1428 cells assessed as decrease in HSP90 level incubated for 24 hrs by immunostaining based imaging cytometric analysis; assay type: functional, cell-based
ZR-75-30 [3] = assay: Induction of AMPK phosphorylation in tamoxifen-induced senescent human ZR-75-30 cells incubated for 24 hrs by immunostaining based imaging cytometric analysis; assay type: cell-based; details: filed as activator
MCF-10F [4] = assay: Induction of mitochondrial dysfunction in human MCF-10F cells assessed as increase in proton leak at 5 uM incubated for 6 hrs by real time analysis; assay type: functional, cell-based
MCF7 [5] = assay: Antitumor activity against ER-positive human MCF7 cells xenografted in Danio rerio embryo assessed as decrease in tumor size at 1 to 5 uM administered for 48 hrs by imaging analysis; assay type: functional, cell-based; details: dose 1-5 µM
HCC1428 [6] = assay: Induction of apoptosis in tamoxifen-induced senescent human HCC1428 cells assessed as phosphatidylserine externalization at 1 to 5 uM incubated for 24 hrs by Annexin V-FITC staining based flow cytometric analysis; assay type: functional, cell-based; details: dose 1-5 µM
HCC1428 [7] = assay: Induction of mitochondrial dysfunction in human HCC1428 cells assessed as decrease in maximal respiration at 5 uM incubated for 6 hrs by real time analysis; assay type: functional, cell-based
HCC1428 [8] = assay: Induction of mitochondrial dysfunction in tamoxifen-induced senescent human HCC1428 cells assessed as increase in proton leak at 5 uM incubated for 6 hrs by real-time analysis; assay type: functional, cell-based
MCF7 [9] = assay: Antitumor activity against ER-positive human MCF7 cells xenografted in Danio rerio embryo assessed as increase in Bax mRNA level at 1 to 5 uM administered for 48 hrs by RT-PCR analysis; assay type: functional, cell-based; details: dose 1-5 µM
CAMA-1 = assay: Induction of senescence in human CAMA-1 cells assessed as […] in beta-galactosidase activity at 5 uM incubated for 24 hrs by immunostaining based imaging cytometric analysis; assay type: functional, cell-based
HCC1428 [10] = assay: Induction of mitochondrial dysfunction in tamoxifen-induced senescent human HCC1428 cells assessed as decrease in spare respiratory capacity at 5 uM incubated for 6 hrs by real-time analysis; assay type: functional, cell-based
MCF-10F [11] = assay: Induction of mitochondrial dysfunction in tamoxifen-induced senescent human MCF-10F cells assessed as decrease in maximal respiration at 5 uM incubated for 6 hrs by real-time analysis; assay type: functional, cell-based
HCC1428 [12] = assay: Effect on Bcl-rambo protein level in tamoxifen-induced senescent human HCC1428 cells at 1 to 5 uM incubated for 24 hrs by Western blot analysis; assay type: functional, cell-based; details: dose 1-5 µM
HCC1500 [13] = assay: Anticancer activity against ER-positive human HCC1500 cells assessed as effect on metabolic activity upto 10 uM incubated for 24 hrs by MTT assay; assay type: functional, cell-based
HCC1500 [14] = assay: Induction of apoptosis in tamoxifen-induced senescent human HCC1500 cells assessed as phosphatidylserine externalization at 1 to 5 uM incubated for 24 hrs by Annexin V-FITC staining based flow cytometric analysis; assay type: functional, cell-based; details: dose 1-5 µM
HCC1428 [15] = assay: Induction of ubiquitin-dependent mitophagy in tamoxifen-induced senescent human HCC1428 cells assessed as increase in PINK1 level at 5 uM by immunostaining based imaging cytometric analysis; assay type: functional, cell-based
HCC1428 [16] = assay: Induction of apoptosis in human HCC1428 cells assessed as decrease in Bcl2 level at 1 to 5 uM incubated for 24 hrs by Western blot analysis; assay type: functional, cell-based; details: dose 1-5 µM
HCC1428 [17] = assay: Induction of mitochondrial dysfunction in human HCC1428 cells assessed as decrease in coupling efficiency at 5 uM incubated for 6 hrs by real time analysis; assay type: functional, cell-based
HCC1428 [18] = assay: Induction of apoptosis in human HCC1428 cells assessed as decrease in AKT level at 1 to 5 uM incubated for 24 hrs by Western blotting analysis; assay type: functional, cell-based; details: dose 1-5 µM
HCC1428 [19] = assay: Induction of apoptosis in tamoxifen-induced senescent human HCC1428 cells assessed as decrease in Bcl2 level at 5 uM incubated for 24 hrs by Western blot analysis; assay type: functional, cell-based
MCF-10F [20] = assay: Induction of mitochondrial dysfunction in human MCF-10F cells assessed as decrease in maximal respiration at 5 uM incubated for 6 hrs by real time analysis; assay type: functional, cell-based

## CC(=O)Oc1ccc2c(=O)c(OCCCC[P+](c3ccccc3)(c3ccccc3)c3ccccc3)c(-c3ccc4c(c3)OC(c3ccccc3)(c3ccccc3)O4)oc2c1.[I-]
T47D
  Activity: Active
ZR-75-30 [1]
  Activity: Active
HCC1428 [2]
  Activity: Active
ZR-75-30 [3]
  Activity: Active
MCF-10F [4]
  Activity: inactive
MCF7 [5]
  Activity: Active
HCC1428 [6]
  Activity: Active
HCC1428 [7]
  Activity: Active
HCC1428 [8]
  Activity: Active
MCF7 [9]
  Activity: Active
CAMA-1
  Activity: Active
HCC1428 [10]
  Activity: Active
MCF-10F [11]
  Activity: inactive
HCC1428 [12]
  Activity: inactive
HCC1500 [13]
  Activity: Active
HCC1500 [14]
  Activity: Active
HCC1428 [15]
  Activity: Active
HCC1428 [16]
  Activity: Active
HCC1428 [17]
  Activity: Active
HCC1428 [18]
  Activity: Active
HCC1428 [19]
  Activity: Active
MCF-10F [20]
  Activity: inactive
